Measured values as given in article PMC6493276, “Quantification of 1D, a novel derivative of curcumin with potential antitumor activity, in rat plasma by liquid chromatography-tandem mass spectrometry: application to a pharmacokinetic study in rats” (Pharmaceutical Biology, 2019).

Tests used:
HT29 cells = tested on: HT29 cells; set-up: method as in Tong et al. [2016]; details: treatment for 48 h, ref Tong et al. [2016]; cited from earlier work
[1] = Stability of 1 D in rat plasma under various storage conditions; assay type: in vitro ADME; details: for Accuracy / Measured concentration (mean ± SD): n = 5
Description: The stability of 1 D in rat plasma was evaluated in five replicates at three QC levels under various storage conditions. […] Short-term and long-term stability were evaluated by storing plasma samples at room temperature for 6 h and −20 °C for 1 month before sample preparation. Freeze-thaw stability of QC samples was assessed after three freeze-thaw cycles (−20 to 25 °C). Autosampler stability was evaluated by keeping the extracted plasma samples in the autosampler for 24 h before analysis. Samples were considered to be stable if assay values were within the acceptable limits of accuracy (±15%) and precision (15% RSD).

A549 cells = tested on: A549 cells; set-up: method as in Tong et al. [2016]; details: treatment for 48 h, ref Tong et al. [2016]; cited from earlier work
HJ1299 cells = tested on: HJ1299 cells; set-up: method as in Tong et al. [2016]; details: treatment for 48 h, ref Tong et al. [2016]; cited from earlier work
[2] = Pharmacokinetic study in rats after single intravenous administration; assay type: in vivo; details: male, Sprague-Dawley, rat, plasma
Description: The applicability of the developed bioanalytical LC-MS/MS method was evaluated by quantitative determination of 1 D in rat plasma after single intravenous administration. All experimental procedures and animal care were performed following approval from the Ethic Committee of Laboratory Animals of the Affiliated Hospital of Qingdao University. Six male Sprague–Dawley rats, weighing 200 ± 15 g, were obtained from Beijing Vital River Experimental Animal Co. Ltd (Beijing, China). The animals were quarantined for 1 week prior to the study and were maintained on a 12 h light/12 h dark cycle at 22 ± 2 °C and at 50 ± 10% relative humidity. The rodents were given a commercial rat chow and water ad libitum. An intravenous dose of 5 mg/kg was selected based on our previous toxicological and pharmacodynamic studies in rats (unpublished data). The administration solution was prepared by dissolving 1 D in PEG400: PG400: DMSO: saline (30: 30: 1: 39, v/v/v/v) to give a concentration of 2 mg/mL. After fasting overnight, rats were given the prepared administration solution at 5 mg/kg via the tail vein. Blood samples (0.2 mL) were collected into heparinized tubes by retro-orbital puncture at 0 (pre-dose), 5, 10, 20, 30, and 45 min, and 1, 1.5, 2, 4, 8, 12, and 24 h after dosing. Plasma was separated by centrifugation at 4500 rpm for 10 min and stored at −20 °C until analysis. The pharmacokinetic parameters including area under the concentration-time curve (AUC), apparent volume of distribution (Vz), elimination half-life (t1/2), and clearance (CLz) were calculated by a non-compartmental analysis method using the DAS 3.0.2 pharmacokinetic programme. As observable parameters, the maximum plasma concentration (Cmax) and the time to reach the maximum concentration (Tmax) were obtained directly.

HCT116 cells = tested on: HCT116 cells; set-up: method as in Tong et al. [2016]; details: treatment for 48 h, ref Tong et al. [2016]; cited from earlier work
[3] = extracted rat plasma, spiked 10 ng/mL, autosampler for 24 h
[4] = extracted rat plasma, spiked 100 ng/mL, autosampler for 24 h
[5] = extracted rat plasma, spiked 500 ng/mL, autosampler for 24 h
[6] = rat plasma, spiked 10 ng/mL, 4 weeks at −20 °C
[7] = rat plasma, spiked 10 ng/mL, 6 h at 25 °C
[8] = rat plasma, spiked 10 ng/mL, three freeze-thaw cycles
[9] = rat plasma, spiked 100 ng/mL, 4 weeks at −20 °C
[10] = rat plasma, spiked 100 ng/mL, 6 h at 25 °C
[11] = rat plasma, spiked 100 ng/mL, three freeze-thaw cycles
[12] = rat plasma, spiked 500 ng/mL, 4 weeks at −20 °C
[13] = rat plasma, spiked 500 ng/mL, 6 h at 25 °C
[14] = rat plasma, spiked 500 ng/mL, three freeze-thaw cycles
[15] = single intravenous 5 mg/kg, n = 6

Accuracy [1, 3]: 103.6%
Measured concentration (mean ± SD) [1, 3]: 10.36 ± 0.75 ng/mL
Accuracy [1, 4]: 101.5%
Measured concentration (mean ± SD) [1, 4]: 101.51 ± 6.43 ng/mL
Accuracy [1, 5]: 96.2%
Measured concentration (mean ± SD) [1, 5]: 481.19 ± 42.98 ng/mL
Accuracy [1, 6]: 106.1%
Measured concentration (mean ± SD) [1, 6]: 10.61 ± 0.55 ng/mL
Accuracy [1, 7]: 102.7%
Measured concentration (mean ± SD) [1, 7]: 10.27 ± 0.56 ng/mL
Accuracy [1, 8]: 101.2%
Measured concentration (mean ± SD) [1, 8]: 10.12 ± 0.66 ng/mL
Accuracy [1, 9]: 98.4%
Measured concentration (mean ± SD) [1, 9]: 98.39 ± 7.52 ng/mL
Accuracy [1, 10]: 104.7%
Measured concentration (mean ± SD) [1, 10]: 104.71 ± 5.16 ng/mL
Accuracy [1, 11]: 99.4%
Measured concentration (mean ± SD) [1, 11]: 99.36 ± 6.92 ng/mL
Accuracy [1, 12]: 103.7%
Measured concentration (mean ± SD) [1, 12]: 518.57 ± 43.30 ng/mL
Accuracy [1, 13]: 106.1%
Measured concentration (mean ± SD) [1, 13]: 530.28 ± 34.32 ng/mL
Accuracy [1, 14]: 100.8%
Measured concentration (mean ± SD) [1, 14]: 503.88 ± 33.79 ng/mL
Changes in concentrations after storage (stability in rat plasma) ([1]; room temperature 6 h, −20 °C 1 month, autosampler 24 h, three freeze-thaw cycles): No significant changes
AUC(0-t) ([2]; 5 mg/kg, intravenous administration, non-compartmental (abstract)): 807 ng·h/mL
Cmax [2, 15]: 610 ng/mL
Tmax [2, 15]: 4.8 min
AUC(0-inf) ([2]; single intravenous 5 mg/kg, n = 6, non-compartmental): 853 ng·h/mL
clearance ([2]; single intravenous 5 mg/kg, n = 6, read-out: CLz (clearance) (converted)): 106 mL/min/kg
MRT last ([2]; single intravenous 5 mg/kg, n = 6, read-out: MRT(0−t)): 3.4 h
MRT inf ([2]; single intravenous 5 mg/kg, n = 6, read-out: MRT(0−∞)): 4.7 h
Vd ([2]; single intravenous 5 mg/kg, n = 6, read-out: Vz (apparent volume of distribution)): 46.6 L/kg
half-life ([2]; single intravenous 5 mg/kg, n = 6, read-out: t1/2 (elimination half-life) (converted)): 295 min
Structure (SMILES): Br.COc1ccc(/C=C/c2cc(/C=C/c3ccc(OC)cc3)nc(OCCCCSC(=N)N)n2)cc1 [1 D, (E,E)-4-(4,6-bis(4-methoxystyryl)pyrimidin-2-yloxy)butyl carbamimidothioate hydrobromide]
IC50 (HT29 cells): 790 nM
IC50 (A549 cells): 990 nM
IC50 (HJ1299 cells): 920 nM
IC50 (HCT116 cells): 1000 nM
